Results on six compounds are retold here after ChEMBL document CHEMBL2040787, “Synthesis and carbonic anhydrase inhibitory properties of novel bromophenols and their derivatives including natural products: vidalol B” (Eur J Med Chem, 2012).

In experiment [1] the target is Carbonic anhydrase 4 (Homo sapiens, UniProt P22748). Nature of the experiment: Inhibition of human CA4 using 4NPA as substrate for 3 mins by Lineweaver burk plot analysis.
Experiment [2] deals with Carbonic anhydrase 6 (Homo sapiens, UniProt P23280). Nature of the experiment: Inhibition of human CA6 using 4NPA as substrate for 3 mins by Lineweaver burk plot analysis.
Carbonic anhydrase 6, sequence (P23280 whole entry): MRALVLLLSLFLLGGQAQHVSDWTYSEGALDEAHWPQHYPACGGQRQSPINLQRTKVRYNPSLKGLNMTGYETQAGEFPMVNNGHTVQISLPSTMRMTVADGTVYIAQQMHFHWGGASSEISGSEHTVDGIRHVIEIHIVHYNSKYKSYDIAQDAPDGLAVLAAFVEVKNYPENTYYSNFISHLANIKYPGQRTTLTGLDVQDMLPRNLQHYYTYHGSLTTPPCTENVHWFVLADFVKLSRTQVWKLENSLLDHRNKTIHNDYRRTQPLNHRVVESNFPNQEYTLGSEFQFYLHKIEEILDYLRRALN
In experiment [3] the target is Carbonic anhydrase 1 (Homo sapiens, UniProt P00915). Nature of the experiment: Noncompetitive inhibition of human CA1 using 4NPA as substrate for 3 mins by Lineweaver burk plot analysis.
Carbonic anhydrase 1, sequence (P00915 whole entry): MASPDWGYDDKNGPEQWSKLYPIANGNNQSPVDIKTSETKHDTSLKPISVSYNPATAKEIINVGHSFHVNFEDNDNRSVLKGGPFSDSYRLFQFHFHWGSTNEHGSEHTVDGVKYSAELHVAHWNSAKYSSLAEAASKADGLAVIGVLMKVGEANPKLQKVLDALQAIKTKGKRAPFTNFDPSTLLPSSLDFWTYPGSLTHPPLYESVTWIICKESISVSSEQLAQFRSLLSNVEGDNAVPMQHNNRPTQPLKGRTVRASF
Experiment [4] deals with Carbonic anhydrase 2 (Homo sapiens, UniProt P00918). Description: Inhibition of human CA2 using 4NPA as substrate for 3 mins by Lineweaver burk plot analysis.

Carbonic anhydrase 4, sequence (P22748 whole entry): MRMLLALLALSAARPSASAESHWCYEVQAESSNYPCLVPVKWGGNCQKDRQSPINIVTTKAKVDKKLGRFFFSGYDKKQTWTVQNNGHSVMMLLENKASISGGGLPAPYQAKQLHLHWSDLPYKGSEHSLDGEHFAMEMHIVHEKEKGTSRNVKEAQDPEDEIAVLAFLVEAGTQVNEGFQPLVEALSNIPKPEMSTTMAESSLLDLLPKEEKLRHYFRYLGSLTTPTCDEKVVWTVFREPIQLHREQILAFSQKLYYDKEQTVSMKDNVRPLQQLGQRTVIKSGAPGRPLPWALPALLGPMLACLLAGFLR

The term Ki denotes the dissociation constant of the complex between target and ligand, obtained from inhibition or displacement. The compound `O=C(O)c1ccc(O)c(O)c1` [PROTOCATECHUIC ACID] came in with a Ki in experiment [1] of 2.45 µM.

`COc1ccc(Cc2ccc(OC)c(OC)c2)cc1OC`: the Ki was determined as 382 µM in experiment [2], 537 µM in experiment [3], 145 µM in experiment [1] and 59.1 µM in experiment [4].

For the compound `Oc1ccc(Cc2ccc(O)c(O)c2)cc1O`, the inhibition constant Ki in experiment [2] turned out to be 13.7 µM; in experiment [3] it was 18.4 µM; in experiment [1], 7.64 µM; in experiment [4] it was 5.64 µM.

`COc1c(Br)c(Br)c(Cc2c(Br)c(Br)c(OC)c(OC)c2Br)c(Br)c1OC`: the inhibition constant (Ki) in experiment [2] was determined as 29.7 µM; in experiment [3], 43.5 µM; in experiment [1] it was 32.7 µM; in experiment [4] it was 35.5 µM.

`COc1ccccc1` [ANISOLE] yielded a Ki in experiment [2] of 235 µM.

Consider `COc1ccc(C(=O)O)cc1OC` [VERATRIC ACID], for which the figures for the Ki in experiment [2] and in experiment [1] were 24.4 µM and 6.48 µM, respectively.
